Data published in patent US7423159B2, “Agent for preventing or treating neuropathy” (Takeda Pharmaceutical Company Limited, priority 2002, dated 2008).

Row | Compound | melting point
1 | COP(=O)(Cc1ccc(NC(=O)/C=C/c2cnn(C)c2-c2ccccc2)cc1)OC | 219 to 220 °C
2 | CCOP(=O)(Cc1ccc(NC(=O)/C=C/c2cn[nH]c2-c2ccc(F)cc2)cc1)OCC | 181 to 182 °C
3 | COP(=O)(Cc1ccc(NC(=O)/C=C/c2cnn(C)c2-c2ccc(C(F)(F)F)cc2)cc1)OC | 212 to 213 °C
4 | CCOP(=O)(Cc1ccc(NC(=O)/C=C/c2cnn(C)c2-c2ccc(C(F)(F)F)cc2)cc1)OCC | 200 to 201 °C
5 | COP(=O)(Cc1ccc(NC(=O)/C=C/c2cnn(C)c2-c2ccccc2F)cc1)OC | 220 to 221 °C
6 | COP(=O)(Cc1ccc(NC(=O)/C=C/c2cnn(C)c2-c2ccoc2)cc1)OC | 176 to 177 °C
7 | COP(=O)(Cc1ccc(NC(=O)/C=C/c2cnn(C)c2-c2cccs2)cc1)OC | 247 to 248 °C
8 | CCOP(=O)(Cc1ccc(NC(=O)/C=C/c2cnn(C)c2-c2ccccc2F)cc1)OCC | 238 to 240 °C
9 | CCOP(=O)(Cc1ccc(NC(=O)/C=C/c2cnn(C)c2-c2cccnc2)cc1)OCC | 211 to 214 °C
10 | CCOP(=O)(Cc1ccc(NC(=O)/C=C/c2cnn(C)c2C)cc1)OCC | 228 to 230 °C
11 | CCOP(=O)(Cc1ccc(NC(=O)/C=C/c2cnn(C)c2)cc1)OCC | 201 to 202 °C
12 | COP(=O)(Cc1ccc(NC(=O)/C=C/c2cnn(C)c2-c2ccc(Br)cc2)cc1)OC | 212 to 214 °C
13 | CCOP(=O)(Cc1ccc(NC(=O)/C=C/c2cnn(C)c2-c2ccc(Br)cc2)cc1)OCC | 229 to 231 °C
14 | COP(=O)(Cc1ccc(NC(=O)/C=C/c2cnn(C)c2-c2cccc3ccccc23)cc1)OC | 207 to 209 °C
15 | CCOP(=O)(Cc1ccc(NC(=O)/C=C/c2cnn(C)c2-c2cccc3ccccc23)cc1)OCC | 229 to 231 °C
16 | COP(=O)(Cc1ccc(NC(=O)/C=C/c2cnn(C)c2-c2cccc(F)c2)cc1)OC | 224 to 226 °C
17 | CCOP(=O)(Cc1ccc(NC(=O)/C=C/c2cnn(C)c2-c2cccc(F)c2)cc1)OCC | 205 to 206 °C
18 | COP(=O)(Cc1ccc(NC(=O)/C=C/c2cnn(C)c2-c2ccc(C)cc2)cc1)OC | 207 to 209 °C
19 | CCOP(=O)(Cc1ccc(NC(=O)/C=C/c2cnn(C)c2-c2ccc(C)cc2)cc1)OCC | 243 to 245 °C
20 | CCOP(=O)(Cc1cccc(NC(=O)/C=C/c2cnn(C)c2-c2ccc(F)cc2)c1)OCC | 170 to 172 °C
21 | CCOP(=O)(Cc1ccccc1NC(=O)/C=C/c1cnn(C)c1-c1ccc(F)cc1)OCC | 168 to 169 °C

Row | Compound | melting point
22 | CCOP(=O)(OCC)c1ccc(NC(=O)/C=C/c2cnn(C)c2-c2ccc(F)cc2)cc1 | 174 to 176 °C
23 | CCOP(=O)(CCc1ccc(NC(=O)/C=C/c2cnn(C)c2-c2ccc(F)cc2)cc1)OCC | 157 to 158 °C
24 | CCOP(=O)(Cc1ccc(NC(=O)/C=C/c2cnn(C)c2-c2ccc(F)cc2)c(C)c1)OCC | 154 to 155 °C
25 | CCOP(=O)(Cc1ccc(NC(=O)/C=C/c2cnn(Cc3ccccc3)c2-c2ccc(F)cc2)cc1)OCC | 207 to 208 °C
26 | CCn1ncc(/C=C/C(=O)Nc2ccc(CP(=O)(OC)OC)cc2)c1-c1ccc(F)cc1 | 187 to 189 °C
27 | CCOP(=O)(Cc1ccc(NC(=O)/C=C/c2cnn(CC)c2-c2ccc(F)cc2)cc1)OCC | 226 to 227 °C
28 | COP(=O)(Cc1ccc(NC(=O)/C=C/c2c(C)nn(C)c2-c2ccc(F)cc2)cc1)OC | 195 to 198 °C
29 | CCOP(=O)(Cc1ccc(NC(=O)/C=C/c2c(C)nn(C)c2-c2ccc(F)cc2)cc1)OCC | 159 to 160 °C
30 | COc1ccc(-c2c(/C=C/C(=O)Nc3ccc(CP(=O)(OC)OC)cc3)cnn2C)cc1 | 199 to 200 °C
31 | COP(=O)(Cc1ccc(NC(=O)/C=C/c2cnn(C)c2-c2ccco2)cc1)OC | 201 to 202 °C
32 | CCOP(=O)(Cc1ccc(NC(=O)/C=C/c2cnn(C)c2-c2ccco2)cc1)OCC | 195 to 196 °C
33 | CCOP(=O)(OCC)C(OC)c1ccc(NC(=O)/C=C/c2cnn(C)c2-c2ccc(F)cc2)cc1 (stereo not drawn) | 200 to 201 °C
34 | CCOP(=O)(OCC)C(O)c1ccc(NC(=O)/C=C/c2cnn(C)c2-c2ccc(F)cc2)cc1 (stereo not drawn) | 194 to 195 °C
35 | CCOP(=O)(Cc1ccc(NC(=O)/C=C/c2cn(C)nc2-c2ccc(F)cc2)cc1)OCC | 197 to 198 °C
36 | CCOP(=O)(Cc1ccc(NC(=O)/C=C/c2c(-c3ccc(F)cc3)cnn2C)cc1)OCC | 138 to 139 °C
37 | CCOP(=O)(Cc1ccc(NC(=O)/C=C/c2nn(C)cc2-c2ccc(F)cc2)cc1)OCC | 203 to 204 °C
38 | CCOP(=O)(Cc1ccc(NC(=O)CCc2cnn(C)c2-c2ccc(F)cc2)cc1)OCC | 143 to 144 °C
39 | COP(=O)(Cc1ccc(NC(=O)CCc2cnn(C)c2-c2ccc(F)cc2)cc1)OC | 142 to 143 °C
40 | COP(=O)(Cc1ccc(NC(=O)/C=C/c2cnn(C)c2-c2cccc(Cl)c2)cc1)OC | 248 to 249 °C
41 | COP(=O)(Cc1ccc(NC(=O)/C=C/c2cncn2-c2ccc(F)cc2)cc1)OC | 108 to 109 °C
42 | CCOP(=O)(Cc1ccc(NC(=O)/C=C/c2nncn2-c2ccc(F)cc2)cc1)OCC | 217 to 218 °C

Row | Compound | melting point
43 | CCOP(=O)(Cc1ccc(NC(=O)/C=C/c2cnn(C)c2-c2cccc(Cl)c2)cc1)OCC | 214 to 216 °C
44 | COP(=O)(Cc1ccc(NC(=O)/C=C/c2snnc2-c2ccc(F)cc2)cc1)OC | 196 to 197 °C
45 | CCOP(=O)(Cc1ccc(NC(=O)/C=C\c2cnn(C)c2-c2ccc(OC)cc2)cc1)OCC | 187 to 188 °C
46 | COc1ccc(-c2c(/C=C\C(=O)Nc3ccc(CP(=O)(OC)OC)cc3)cnn2C)cc1 | 172 to 173 °C
47 | COP(=O)(Cc1ccc(NC(=O)/C=C/c2cnn(C)c2-c2ccc(Cl)cc2)cc1)OC | 209 to 210 °C
48 | CCOP(=O)(Cc1ccc(NC(=O)CCc2cnn(-c3ccccc3)c2-c2ccccc2)cc1)OCC | 157 to 159 °C
49 | CCOC(=O)Cc1ccc(NC(=O)CCc2cnn(-c3ccccc3)c2-c2ccccc2)cc1 [Example 81, N-[4-(Ethoxycarbonylmethyl)phenyl]-3-(1,5-diphenyl-1H-pyrazol-4-yl)propionamide] | 143 to 144 °C
50 | COC(=O)c1ccc(NC(=O)CCc2cnn(-c3ccccc3)c2-c2ccccc2)cc1 [Example 82, N-[4-(Methoxycarbonyl)phenyl]-3-(1,5-diphenyl-1H-pyrazol-4-yl)propionamide] | 196 to 197 °C
51 | O=C(O)Cc1ccc(NC(=O)CCc2cnn(-c3ccccc3)c2-c2ccccc2)cc1 [Example 83, (4-{[3-(1,5-diphenyl-1H-pyrazol-4-yl)propanoyl]amino}phenyl)acetic acid] | 199 to 201 °C
52 | CCCc1nnc(Cc2ccc(NC(=O)/C=C/c3cnn(C)c3-c3ccc(F)cc3)cc2)o1 [Example 85, (2E)-3-[5-(4-fluorophenyl)-1-methyl-1H-pyrazol-4-yl]-N-{4-[(5-propyl-1,3,4-oxadiazol-2-yl)methyl]phenyl}acrylamide] | 154 to 155 °C
53 | Cn1ncc(/C=C/C(=O)Nc2ccc(Cc3n[nH]c(=O)o3)cc2)c1-c1ccc(F)cc1 [Example 86, (2E)-3-[5-(4-Fluorophenyl)-1-methyl-1H-pyrazol-4-yl]-N-{4-[(5-oxo-4,5-dihydro-1,3,4-oxadiazol-2-yl)methyl]phenyl}acrylamide] | 262 to 263 °C
54 | Cn1ncc(/C=C/C(=O)Nc2ccc(Cc3nnn[nH]3)cc2)c1-c1ccc(F)cc1 [Example 87, (2E)-3-[5-(4-Fluorophenyl)-1-methyl-1H-pyrazol-4-yl]-N-[4-(1H-tetrazol-5-ylmethyl)phenyl]acrylamide] | 252 to 253 °C
55 | CCc1nnc(CCc2ccc(NC(=O)/C=C/c3cnn(C)c3-c3ccc(F)cc3)cc2)o1 [Example 88, (2E)-N-{4-[2-(5-Ethyl-1,3,4-oxadiazol-2-yl)ethyl]phenyl}-3-[5-(4-fluorophenyl)-1-methyl-1H-pyrazol-4-yl]acrylamide] | 167 to 168 °C
56 | Cn1ncc(/C=C/C(=O)Nc2ccc(CCc3nnco3)cc2)c1-c1ccc(F)cc1 [Example 89, (2E)-3-[5-(4-Fluorophenyl)-1-methyl-1H-pyrazol-4-yl]-N-{4-[2-(1,3,4-oxadiazol-2-yl)ethyl]phenyl}acrylamide] | 177 to 178 °C
57 | CCc1nc(CCc2ccc(NC(=O)/C=C/c3cnn(C)c3-c3ccc(F)cc3)cc2)cs1 [Example 90, (2E)-N-{4-[2-(2-Ethyl-1,3-thiazol-4-yl)ethyl]phenyl}-3-[5-(4-fluorophenyl)-1-methyl-1H-pyrazol-4-yl]acrylamide] | 190 to 191 °C
58 | Cn1ncc(/C=C/C(=O)Nc2ccc(OCc3cscn3)cc2)c1-c1ccc(F)cc1 [Example 92, (2E)-3-[5-(4-Fluorophenyl)-1-methyl-1H-pyrazol-4-yl]-N-[4-(1,3-thiazol-4-ylmethoxy)phenyl]acrylamide] | 171 to 172 °C
59 | CCc1nc(COc2ccc(NC(=O)/C=C/c3cnn(C)c3-c3ccc(F)cc3)cc2)cs1 [Example 93, (2E)-N-{4-[(2-Ethyl-1,3-thiazol-4-yl)methoxy]phenyl}-3-[5-(4-fluorophenyl)-1-methyl-1H-pyrazol-4-yl]acrylamide] | 98 to 99 °C
60 | Cn1ncc(/C=C/C(=O)Nc2ccc(OCc3nnco3)cc2)c1-c1ccc(F)cc1 [Example 94, (2E)-3-[5-(4-Fluorophenyl)-1-methyl-1H-pyrazol-4-yl]-N-[4-(1,3,4-oxadiazol-2-ylmethoxy)phenyl]acrylamide] | 154 to 155 °C
61 | Cc1coc(Cc2ccc(NC(=O)/C=C/c3cnn(C)c3-c3ccc(F)cc3)cc2)n1 [Example 95, (2E)-3-[5-(4-Fluorophenyl)-1-methyl-1H-pyrazol-4-yl]-N-{4-[(4-methyl-1,3-oxazol-2-yl)methyl]phenyl}acrylamide] | 220 to 221 °C
62 | Cn1ncc(/C=C/C(=O)Nc2ccc(Cc3ccccn3)cc2)c1-c1ccc(F)cc1 [Example 96, (2E)-3-[5-(4-Fluorophenyl)-1-methyl-1H-pyrazol-4-yl]-N-[4-(pyridin-2-ylmethyl)phenyl]acrylamide] | 215 to 216 °C
63 | Cc1nnc(COc2ccc(NC(=O)/C=C/c3cnn(C)c3-c3ccc(F)cc3)cc2)o1 [Example 97, (2E)-3-[5-(4-Fluorophenyl)-1-methyl-1H-pyrazol-4-yl]-N-{4-[(5-methyl-1,3,4-oxadiazol-2-yl)methoxy]phenyl}acrylamide] | 117 to 118 °C
